According to patent publication US10961238B2, “Modulators of hedgehog (Hh) signaling pathway” (E-THERAPEUTICS PLC, priority 2016, dated 2021):

test system: C3H10T1/2 cells; experiment: C3H assay: differentiation of C3H10T1/2 cells by mSHH, measurement of alkaline phosphatase; format: cell-based, mouse; details: Mus musculus, C3H 10T1/2; C3H10T1/2 cells stimulated with mSHH for 72 hours; alkaline phosphatase activity; read-out: IC50 Ranges

Structure (SMILES) | IC50
Cc1cc(Cl)ccc1C1CCN(S(=O)(=O)C2CN(C(=O)CN(C(C)C)C(C)C)C2)CC1 [Compound 317, 1-[3-[4-(4-chloro-2-methylphenyl)piperidin-1-yl]sulfonylaze-tidin-l-yl]-2-[di(propan-2-yl)amino] ethanone] | 100 to 1000 nM
O=C(OC1CCOCC1)N1CC(S(=O)(=O)N2CCC(c3ccc(Cl)cc3)CC2)C1 [Compound 320, oxan-4-yl 3-[4-(4-chlorophenyl)piperidin-1-yl]sulfonylaze-tidine-1-carboxylate] | 100 to 1000 nM
CC(C)[C@H](CO)NC(=O)N1CC(S(=O)(=O)N2CCC(c3ccc(Cl)cc3)CC2)C1 [Compound 321, 3-[4-(4-chlorophenyl)piperidin-1-yl]sulfonyl-N-[(2R)-1-hydroxy-3-methylbutan-2-yl]azetidine-1-carboxamide] | 10 to 100 nM
Cc1noc(C)c1NC(=O)N1CC(S(=O)(=O)N2CCC(c3ccc(Cl)cc3)CC2)C1 [Compound 322, 3-[4-(4-chlorophenyl)piperidin-1-yl]sulfonyl-N-(3,5-dimethyl-1,2-oxazol-4-yl)azetidine-1-carboxamide] | 10 to 100 nM
CC(C)N(CC(=O)N1CC(S(=O)(=O)N2CCC(c3ccc(C#N)cc3)CC2)C1)C(C)C [Compound 324, 4-[1-[1-[2-[di(propan-2-yl)amino]acetyl]azetidin-3-yl]sulfonylpiper-idin-4-yl]benzonitrile] | 10 to 100 nM
CC(C)(C)OC(=O)N1CC(S(=O)(=O)N2CCC(c3ccc(F)cc3)CC2)C1 [Compound 327, tert-butyl 3-[4-(4-fluorophenyl)piperidin-l-yl]sulfonylaze-tidine-1-carboxylate] | 100 to 1000 nM
O=S(=O)(C1CN(c2nc3ccccc3s2)C1)N1CCC(c2ccncc2)CC1 [Compound 337, 2-[3-(4-pyridin-4-ylpiperidin-1-yl)sulfonylaze-tidin-1-yl]-1,3-benzothiazole] | 100 to 1000 nM
Cc1noc(C)c1CC(=O)N1CC(S(=O)(=O)N2CCC(c3ccc(F)cc3)CC2)C1 [Compound 342, 2-(3,5-dimethyl-1,2-oxazol-4-yl)-1-[3-[4-(4-fluorophenyl)piperidin-1-yl]sulfonylazetidin-1-yl]ethanone] | 10 to 100 nM
CC(C)N(CC(=O)N1CC(S(=O)(=O)N2CCC(c3ccc(F)cc3)CC2)C1)C(C)C [Compound 343, 2-[di(propan-2-yl)amino]-1-[3-[4-(4-fluorophenyl)piperidin-1-yl]sulfonylaze-tidin-l-yl]ethanone] | 100 to 1000 nM
Cc1noc(C)c1CC(=O)N1CC(S(=O)(=O)N2CCC(c3ccc(C#N)cc3)CC2)C1 [Compound 349, 4-[1-[1-[2-(3,5-dimethyl-1,2-oxazol-4-yl)acetyl]azetidin-3-yl]sulfonylpiper-idin-4-yl]benzonitrile] | 10 to 100 nM
CN(C(=O)N1CC(S(=O)(=O)N2CCC(c3ccc(C#N)cc3)CC2)C1)C1CC1 [Compound 350, 3-[4-(4-cyanophenyl)piperidin-1-yl]sulfonyl-N-cyclopropyl-N-methylazetidine-1-carboxamide] | 1000 to 10000 nM
N#Cc1ccc(C2CCN(S(=O)(=O)C3CN(C(=O)CC(O)(C(F)(F)F)C(F)(F)F)C3)CC2)cc1 [Compound 351] | 100 to 1000 nM
CC(C)(C)NC(=O)N1CC(S(=O)(=O)N2CCC(c3ccc(C#N)cc3)CC2)C1 [Compound 352, N-tert-butyl-3-[4-(4-cyanophenyl)piperidin-1-yl] sulfonylazetidine-1-carboxamide] | 100 to 1000 nM
O=S(=O)(C1CN(Cc2ccccc2OC(F)F)C1)N1CCC(c2ccccc2)CC1 [Compound 353, 1-[1-[[2-(difluoromethoxy)phenyl]methyl]azetidin-3-yl]sulfonyl-4-phenylpiperidine] | 1000 to 10000 nM
Cc1ccc(C2CCN(S(=O)(=O)C3CN(C(=O)OC(C)(C)C)C3)CC2)c(C)c1 [Compound 354, tert-butyl 3-[4-(2,4-dimethylphenyl)piperidin-1-yl]sulfonylaze-tidine-1-carboxylate] | 1000 to 10000 nM

Now from value to compound:

IC50 | Structure (SMILES)
1000 to 10000 nM | Cc1noc(C)c1C(=O)N1CC(S(=O)(=O)N2CCC(c3ccccc3)CC2)C1 [Compound 316, (3,5-dimethyl-1,2-oxazol-4-yl)-[3-(4-phenylpiperidin-1-yl)sulfonylaze-tidin-1-yl]methanone]
1000 to 10000 nM | Cc1cc(Cl)ccc1C1CCN(S(=O)(=O)C2CN(C(=O)[C@@H]3CCCN3C)C2)CC1 [Compound 318, [3-[4-(4-chloro-2-methylphenyl)piperidin-1-yl]sulfonylaze-tidin-1-yl]-[(2S)-1-methylpyrrolidin-2-yl]methanone]
10 to 100 nM | CC(C)(C(=O)N1CC(S(=O)(=O)N2CCC(c3c[nH]c4ncccc34)CC2)C1)C(F)(F)F [Compound 323, 3,3,3-trifluoro-2,2-dimethyl-1-[3-[4-(1H-pyrrolo[2,3-b]pyridin-3-yl)piperidin-1-yl]sulfonylaze-tidin-1-yl]propan-1-one]
1000 to 10000 nM | CN(C)CC(=O)N1CC(S(=O)(=O)N2CCC(c3c[nH]c4ncccc34)CC2)C1 [Compound 325, 2-(dimethylamino)-1-[3-[4-(1H-pyrrolo[2,3-b]pyridin-3-yl)piperidin-1-yl]sulfonylaze-tidin-1-yl]ethanone]
10 to 100 nM | CC(C)N(CC(=O)N1CC(S(=O)(=O)N2CCC(c3c[nH]c4ncccc34)CC2)C1)C(C)C [Compound 326, 2-[di(propan-2-yl)amino]-1-[3-[4-(1H-pyrrolo [2,3-b]pyridin-3-yl)piperidin-1-yl]sulfonylaze-tidin-1-yl]ethanone]
1000 to 10000 nM | CN(C)CC(=O)N1CC(S(=O)(=O)N2CCC(c3coc4cccnc34)CC2)C1 [Compound 329, 2-(dimethylamino)-1-[3-(4-furo[3,2-b]pyridin-3-ylpiperidin-1-yl)sulfonylaze-tidin-1-yl]ethanone]
10 to 100 nM | CC(C)N(CC(=O)N1CC(S(=O)(=O)N2CCC(c3coc4cccnc34)CC2)C1)C(C)C [Compound 330, 2-[di(propan-2-yl)amino]-1-[3-(4-furo[3,2-b]pyridin-3-ylpiperidin-1-yl)sulfonylaze-tidin-1-yl]ethanone]
10 to 100 nM | N#Cc1ccc(C2CCN(S(=O)(=O)C3CN(C(=O)NC4(C(F)(F)F)CC4)C3)CC2)cc1 [Compound 331, 3-[4-(4-cyanophenyl)piperidin-1-yl]sulfonyl-N-[1 (trifluoromethyl)cyclopropyl] azetidine-1-carboxamide]
10 to 100 nM | C[C@@H](NC(=O)N1CC(S(=O)(=O)N2CCC(c3c[nH]c4ncccc34)CC2)C1)C(F)(F)F [Compound 332, 3-[4-(1H-pyrrolo [2,3-b]pyridin-3-yl)piperidin-1-yl]sulfonyl-N-[(2R)-1,1,1-trifluoropropan-2-yl]azetidine-1-carboxamide]
10 to 100 nM | N#Cc1ccc(NC(=O)N2CC(S(=O)(=O)N3CCC(c4c[nH]c5ncccc45)CC3)C2)cc1 [Compound 335, N-(4-cyanophenyl)-3-[4-(1H-pyrrolo [2,3-b]pyridin-3-yl)piperidin-1-yl]sulfonylaze-tidine-1-carboxamide]
10 to 100 nM | CC(C)(C)OC(=O)NC1CC(S(=O)(=O)N2CCC(c3c[nH]c4ncccc34)CC2)C1 (stereo not drawn) [Compound 336, tert-butyl N-[3-[4-(1H-pyrrolo[2,3-b]pyridin-3-yl)piperidin-1-yl]sulfonylcyclobutyl] carbamate]
10 to 100 nM | O=S(=O)(C1CN(c2nc3ccccc3o2)C1)N1CCC(c2c[nH]c3ncccc23)CC1 [Compound 338, 2-[3-[4-(1H-pyrrolo[2,3-b]pyridin-3-yl)piperidin-1-yl]sulfonylaze-tidin-1-yl]-1,3-benzoxazole]
1000 to 10000 nM | CC(C)(C)OC(=O)N1CC(S(=O)(=O)N2CCC(c3c[nH]c4cnccc34)CC2)C1 [Compound 339, tert-butyl 3-[4-(1H-pyrrolo[2,3-c]pyridin-3-yl)piperidin-1-yl]sulfonylaze-tidine-1-carboxylate]
1000 to 10000 nM | CN(C(=O)N1CC(S(=O)(=O)N2CCC(c3ccc(F)cc3)CC2)C1)C1CC1 [Compound 340, N-cyclopropyl-3-[4-(4-fluorophenyl)piperidin-1-yl]sulfonyl-N-methylazetidine-1-carboxamide]
10 to 100 nM | O=C(NC1(C(F)(F)F)CC1)N1CC(S(=O)(=O)N2CCC(c3ccc(Cl)cc3)CC2)C1 [Compound 341, 3-[4-(4-chlorophenyl)piperidin-1-yl]sulfonyl-N-[1-(trifluoromethyl)cyclopropyl] azetidine-1-carboxamide]
100 to 1000 nM | O=C(NC1(C(F)(F)F)CC1)[C@H]1C[C@H](S(=O)(=O)N2CCC(c3coc4cccnc34)CC2)C1 [Compound 345, trans-3-(4-furo[3,2-b]pyridin-3-ylpiperidin-1-yl)sulfonyl-N-[1-(trifluoromethyl)cyclopropyl] cyclobutane-1-carboxamide]
1000 to 10000 nM | CC(C)(C)NC(=O)[C@H]1C[C@H](S(=O)(=O)N2CCC(c3coc4cccnc34)CC2)C1 [Compound 346, trans-N-tert-butyl-3-(4-furo[3,2-b]pyridin-3-ylpiperidin-1-yl) sulfonylcyclobutane-1-carboxamide]
1000 to 10000 nM | O=C(NC1(C(F)(F)F)CC1)N1CC(S(=O)(=O)N2CCC(c3c[nH]c4cnccc34)CC2)C1 [Compound 355, 3-[4-(1H-pyrrolo[2,3-c]pyridin-3-yl)piperidin-1-yl]sulfonyl-N-[1-(trifluoromethyl)cyclopropyl] azetidine-1-carboxamide]
1000 to 10000 nM | O=S(=O)(C1CN(c2ccccn2)C1)N1CCC(c2c[nH]c3cccnc23)CC1 [Compound 356, 3-[1-(1-pyridin-2-ylazetidin-3-yl)sulfonylpiper-idin-4-yl]-1H-pyrrolo[3,2-b]pyridine]
10 to 100 nM | CC(C)(C)OC(=O)N[C@H]1C[C@H](S(=O)(=O)N2CCC(c3c[nH]c4ncccc34)CC2)C1 [Compound 357, trans-tert-butyl-N-[3-[[4-(1H-pyrrolo[2,3-b]pyridin-3-yl)-1-piperidyl]sulfonyl]cyclobutyl]carbamate]
10 to 100 nM | CC(C)(C)OC(=O)N[C@H]1C[C@@H](S(=O)(=O)N2CCC(c3c[nH]c4ncccc34)CC2)C1 [Compound 358, cis-tert-butyl-N-[3-[[4-(1H-pyrrolo[2,3-b]pyridin-3-yl)-1-piperidyl]sulfonyl]cyclobutyl]carbamate]
